Test results published in US20240207329A1, “METHODS OF TREATING ADENOCARCINOMA WITH HUMAN MICROBIOTA DERIVED N-ACYL AMIDES” (ICAHN SCHOOL OF MEDICINE AT MOUNT SINAI, priority 2021, published 2024).

Assays:
Tumor organoids = assay: Treatment of mouse tumor organoids with N-acyl amides, end-point viability by CellTiter-Glo; format: cell-based, mice; conditions: for IC50: mouse tumor organoids, viability 3 days post-drug addition, CellTiter-Glo, triplicate; for liver cancer growth and/or survival: tumor organoid dose-response curves, FIG. 7
Description: Tumor organoids were prepared from the animal model described in Example 1 (i.e. tissue from control animals was isolated at 24 weeks and tumor organoids prepared therefrom). Tumor organoids were generated according to protocols known in the art (Broutier, L., Andersson-Rolf, A., Hindley, C J., Boj, S F., Clevers, H., et al., Culture and establishment of self-renewing human and mouse adult liver and pancreas 3D organoids and their genetic manipulation. Nat Protoc. 2016. 11(9): 1724-43 and Broutier, L. Mastrogiovanni, G., Verstegen, M M., Francies, H E., Gavarro, L M., et al., Human primary liver cancer-derived organoid cultures for disease modeling and drug screening. Nat Med. 2017 23(12): 1424-1435). Liver biopsies were digested in sterile PBS containing 0.125 mg/mL collagenase IV, 0.125 mg/mL dispase II, and 0.1 mg/mL DNaseI. Digestions were performed at 37° C. for at least 4 hours. Tissue dissociate was filtered through a 70 μm strainer and washed with basal media (Advanced DMEM/F12, 1% L-glutamine, 1% penstrep, 1 mM HEPES). Cells were counted, washed, and resuspended at 50,000 cells/50 μL matrigel. 50 μL matrigel droplets were plated in 24-well plates and allowed to polymerize for 15 minutes at 37° C. Tumor dissociate was cultured in tumor media (basal media, 1:50 B27, 1 mM N-acetylcysteine, 10 mM nicotinamide, 10 nM recombinant human [Leu^15]-gastrin I, 50 ng/mL recombinant murine EGF, 100 ng/mL recombinant human FGF10, and 50 ng/mL recombinant human HGF) until organoids formed. To passage, organoids were removed from matrigel in basal media, spun down at 300 g for 5 minutes, mechanically broken via passage through a 21 g needle, washed in basal media, and re-plated in matrigel.
96-wells plates were coated with a 50:50 solution of matrigel:basal media, which was allowed to polymerize for 15 minutes at 37° C. Tumor organoids were mechanically broken as described above, counted, and seeded at 1,000 cells/well in tumor media. Following overnight incubation, serial drug dilutions were added to the tumor organoids. […] End-point viability was analyzed 3-days post-drug addition using CellTiter-Glo. Each treatment was performed in triplicate.

[1] = system: Human hepatocellular cancer (HCC) organoids; assay: Treatment of human HCC and cholangiocarcinoma organoids, anti-tumor effects; format: cell-based; conditions: triplicate
Description: Human hepatocellular cancer (HCC) organoids were prepared from patients with non alcoholic steatohpepatitis (NASH), hepatitis B virus (HBV) and hepatitis C virus (HCV). The HCC organoids were generated according to protocols known in the art (Broutier, L., Andersson-Rolf, A., Hindley, C J., Boj, S F., Clevers, H., et al., Culture and establishment of self-renewing human and mouse adult liver and pancreas 3D organoids and their genetic manipulation. Nat Protoc. 2016. 11(9): 1724-43 and Broutier, L. Mastrogiovanni, G., Verstegen, M M., Francies, H E., Gavarro, L M., et al., Human primary liver cancer-derived organoid cultures for disease modeling and drug screening. Nat Med. 2017 23(12): 1424-1435). Organoids were also prepared from a single patient with cholangiocarcinoma (ICC). N-oleoyl serinol and N-oleoyl glycine were assayed for anti-tumor effects. Each treatment was performed in triplicate. […] N-oleoyl serinol was active specifically against HCCC organoids from patients with NASH.

CCCCCCCC/C=C\CCCCCCCC(=O)NCC(=O)O [N-oleoyl glycine]
IC50 (Tumor organoids; 72 h): > 100 µM | anti-tumor effects ([1]; all organoid cell lines (HCC from NASH, HBV, HCV patients; cholangiocarcinoma)): inactive

CCCCCCCC/C=C\CCCCCCCC(=O)NC(CO)CO [N-oleoyl serinol]
IC50 (Tumor organoids; 72 h): 0.0333 µM | liver cancer growth and/or survival (Tumor organoids): inhibit or reduce | anti-tumor effects ([1]; HCC organoids from patients with NASH): active

CCCCCCCCCCCCCCCC(=O)NCC(=O)O [N-palmitoyl glycine]
IC50 (Tumor organoids): > 100 µM

CCCCCCCCCCCCCCCC(=O)NC(CO)CO [palmitoyl serinol]
IC50 (Tumor organoids; 72 h): > 100 µM

CCCCCCCC/C=C\CCCCCCCC(=O)NCCO [N-oleoyl ethanolamide, reference compound]
IC50 (Tumor organoids; 72 h): 0.126 µM | liver cancer growth and/or survival (Tumor organoids): inhibit or reduce
